Reference: paper PMC12198407, “Preclinical and first-in-human of purinostat mesylate, a novel selective HDAC I/IIb inhibitor, in relapsed/refractory multiple myeloma and lymphoma” (Signal Transduction and Targeted Therapy, 2025)
Like-named read-outs stand apart in the source and are kept apart here.

Key:
[1] = test system: human multiple myeloma RPMI-8226; type: in vivo
CYP2B6 = target: T1, CYP2B6 (Homo sapiens, UniProt P20813); test: CYP inhibition, human liver microsomes; type: in vitro ADME
T1 construct: human liver microsomal cytochrome P450 isoenzymes; from tissue; host or cells: human liver microsomes
T1 sequence (P20813 whole entry): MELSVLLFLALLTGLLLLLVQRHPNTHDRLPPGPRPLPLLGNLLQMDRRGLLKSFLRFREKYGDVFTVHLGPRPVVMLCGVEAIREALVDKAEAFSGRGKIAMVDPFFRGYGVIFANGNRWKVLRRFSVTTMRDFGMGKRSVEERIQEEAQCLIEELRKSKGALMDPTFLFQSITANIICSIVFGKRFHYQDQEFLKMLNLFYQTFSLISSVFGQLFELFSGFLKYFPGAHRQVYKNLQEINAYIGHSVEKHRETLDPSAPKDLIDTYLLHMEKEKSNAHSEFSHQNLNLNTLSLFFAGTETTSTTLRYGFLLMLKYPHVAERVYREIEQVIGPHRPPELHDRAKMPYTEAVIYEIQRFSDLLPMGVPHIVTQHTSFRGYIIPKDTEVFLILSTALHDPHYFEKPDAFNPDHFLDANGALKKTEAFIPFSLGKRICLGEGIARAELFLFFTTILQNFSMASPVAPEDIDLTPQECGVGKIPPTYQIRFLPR

CYP1A2 = test: CYP induction, cryopreserved human liver cells; type: in vitro ADME; conditions: 0.0500, 0.500, 5.00 µM; three donors
MM1S xenograft = MM1S xenograft mouse model; type: in vivo, NOD-SCID mice; conditions: for median survival time: satellite group, death = tumor 1500 mm³
[2] = test system: 8 MM and 8 lymphoma cell lines; test: Antiproliferation assay, cell line panel (CCK8); type: cell-based; conditions: Homo sapiens; 72 h, all 16 cell lines
Protocol: PM, panobinostat, Pom and DXM were dissolved in DMSO and stored at -20°C freezer. Cells were seeded at a density of 1.0-3.0 × 10^4 cells/well/100 μL in 96-well plates. After overnight incubation, cells were treated with the drug-containing culture medium for 24, 48, or 72 hours, and cell viability was measured using CCK8 (Oriscience, Chengdu, China) at the indicated time points with Biotek Cytation 3 at a wavelength of 450 nm. The IC50 values were calculated using GraphPad Prism 9.4.1, and Calcusyn 2.0 software was employed to calculate the CI values.

CYP2C19 = target: T2, CYP2C19 (Homo sapiens, UniProt P33261); test: CYP inhibition, human liver microsomes; type: in vitro ADME
T2 construct: human liver microsomal cytochrome P450 isoenzymes; from tissue; host or cells: human liver microsomes
T2 sequence (P33261 whole entry): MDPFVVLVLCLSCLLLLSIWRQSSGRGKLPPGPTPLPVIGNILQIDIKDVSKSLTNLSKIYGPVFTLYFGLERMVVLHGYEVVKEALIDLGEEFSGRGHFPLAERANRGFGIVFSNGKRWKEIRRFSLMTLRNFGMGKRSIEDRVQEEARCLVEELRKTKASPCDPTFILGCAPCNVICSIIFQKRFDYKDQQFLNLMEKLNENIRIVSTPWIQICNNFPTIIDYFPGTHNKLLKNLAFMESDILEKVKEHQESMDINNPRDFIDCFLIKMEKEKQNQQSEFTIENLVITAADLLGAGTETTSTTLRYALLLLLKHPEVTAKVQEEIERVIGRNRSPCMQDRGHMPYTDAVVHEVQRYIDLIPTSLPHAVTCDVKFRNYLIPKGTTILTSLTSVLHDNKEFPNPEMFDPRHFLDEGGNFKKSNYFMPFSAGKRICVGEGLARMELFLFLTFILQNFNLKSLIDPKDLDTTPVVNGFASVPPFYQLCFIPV

HDAC7 = HDAC7 (Homo sapiens, UniProt Q8WUI4); test: HDAC enzyme activity in vitro; type: biochemical
Chain of HDAC7 (Q8WUI4 whole entry): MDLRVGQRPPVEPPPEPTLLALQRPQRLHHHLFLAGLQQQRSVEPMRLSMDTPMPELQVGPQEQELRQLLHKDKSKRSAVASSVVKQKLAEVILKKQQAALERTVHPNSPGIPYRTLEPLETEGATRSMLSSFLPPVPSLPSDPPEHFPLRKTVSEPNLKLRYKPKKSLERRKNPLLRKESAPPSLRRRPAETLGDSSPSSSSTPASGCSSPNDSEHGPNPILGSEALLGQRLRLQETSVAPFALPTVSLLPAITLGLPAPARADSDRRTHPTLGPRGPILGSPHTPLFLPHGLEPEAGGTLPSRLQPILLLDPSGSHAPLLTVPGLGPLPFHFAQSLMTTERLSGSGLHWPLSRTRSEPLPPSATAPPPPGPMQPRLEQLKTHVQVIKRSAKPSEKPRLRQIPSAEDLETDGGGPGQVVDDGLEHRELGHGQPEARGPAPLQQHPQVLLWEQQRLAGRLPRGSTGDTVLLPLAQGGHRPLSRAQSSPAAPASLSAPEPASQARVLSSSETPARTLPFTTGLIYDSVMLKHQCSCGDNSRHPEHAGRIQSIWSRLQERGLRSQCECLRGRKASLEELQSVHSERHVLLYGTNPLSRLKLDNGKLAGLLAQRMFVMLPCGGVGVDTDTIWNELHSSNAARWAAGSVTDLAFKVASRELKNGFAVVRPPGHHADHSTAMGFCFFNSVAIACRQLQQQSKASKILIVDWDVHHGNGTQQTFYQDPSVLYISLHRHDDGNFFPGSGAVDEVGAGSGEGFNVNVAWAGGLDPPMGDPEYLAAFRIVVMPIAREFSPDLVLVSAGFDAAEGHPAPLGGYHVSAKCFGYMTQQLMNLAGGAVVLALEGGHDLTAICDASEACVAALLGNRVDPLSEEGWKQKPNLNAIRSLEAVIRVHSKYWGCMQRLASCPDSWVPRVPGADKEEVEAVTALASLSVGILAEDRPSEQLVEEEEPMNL

5TGM1-luc myeloma = test: 5TMM mouse model, survival and serum calcium; type: in vivo, C57BL/KawRij mice; design: serum calcium level: unit not given here; conditions: 10 mg/kg
Protocol: The cMYC-KRAS12V-induced plasmacytoma mouse model in BALB/c (GemPharmatech Co., Ltd., Nanjing, China) was established as previously described.[33] On day 28 or 35 post bone marrow transplantation, recipients received various treatments. The 5TMM mouse model was established as previously described.[55] The 5TGM1-luc cells were intravenously injected into 6-week-old C57BL/KawRij mice (Harlan Co. Netherlands) with 2 × 10^6 cells per mouse. After three weeks, mice were treated with vehicle or PM 10 mg/kg. Serum Ca^2+ levels were monitored weekly for three weeks after the start of administration. Kaplan-Meier survival curves were generated for each treatment group. Additionally, the 5TMM mouse model studying PM’s effects on immune response and bone destruction involved randomizing mice into vehicle and PM (10 mg/kg) groups one week after inoculation. T cell subsets were analyzed by flow cytometry 24 h after a single dose and 1 month after vehicle or PM treatment. The mice were sacrificed after 1 month of treatment, and the bone destruction was detected by Micro-CT.

[3] = test system: human double-hit lymphoma SUDHL-6; test: SUDHL-6 subcutaneous tumor model; type: in vivo, NOD/SCID mice; conditions: for median survival time: satellite group
HDAC4 = HDAC4 (Homo sapiens, UniProt P56524); test: HDAC enzyme activity in vitro; type: biochemical
Chain of HDAC4 (P56524 whole entry): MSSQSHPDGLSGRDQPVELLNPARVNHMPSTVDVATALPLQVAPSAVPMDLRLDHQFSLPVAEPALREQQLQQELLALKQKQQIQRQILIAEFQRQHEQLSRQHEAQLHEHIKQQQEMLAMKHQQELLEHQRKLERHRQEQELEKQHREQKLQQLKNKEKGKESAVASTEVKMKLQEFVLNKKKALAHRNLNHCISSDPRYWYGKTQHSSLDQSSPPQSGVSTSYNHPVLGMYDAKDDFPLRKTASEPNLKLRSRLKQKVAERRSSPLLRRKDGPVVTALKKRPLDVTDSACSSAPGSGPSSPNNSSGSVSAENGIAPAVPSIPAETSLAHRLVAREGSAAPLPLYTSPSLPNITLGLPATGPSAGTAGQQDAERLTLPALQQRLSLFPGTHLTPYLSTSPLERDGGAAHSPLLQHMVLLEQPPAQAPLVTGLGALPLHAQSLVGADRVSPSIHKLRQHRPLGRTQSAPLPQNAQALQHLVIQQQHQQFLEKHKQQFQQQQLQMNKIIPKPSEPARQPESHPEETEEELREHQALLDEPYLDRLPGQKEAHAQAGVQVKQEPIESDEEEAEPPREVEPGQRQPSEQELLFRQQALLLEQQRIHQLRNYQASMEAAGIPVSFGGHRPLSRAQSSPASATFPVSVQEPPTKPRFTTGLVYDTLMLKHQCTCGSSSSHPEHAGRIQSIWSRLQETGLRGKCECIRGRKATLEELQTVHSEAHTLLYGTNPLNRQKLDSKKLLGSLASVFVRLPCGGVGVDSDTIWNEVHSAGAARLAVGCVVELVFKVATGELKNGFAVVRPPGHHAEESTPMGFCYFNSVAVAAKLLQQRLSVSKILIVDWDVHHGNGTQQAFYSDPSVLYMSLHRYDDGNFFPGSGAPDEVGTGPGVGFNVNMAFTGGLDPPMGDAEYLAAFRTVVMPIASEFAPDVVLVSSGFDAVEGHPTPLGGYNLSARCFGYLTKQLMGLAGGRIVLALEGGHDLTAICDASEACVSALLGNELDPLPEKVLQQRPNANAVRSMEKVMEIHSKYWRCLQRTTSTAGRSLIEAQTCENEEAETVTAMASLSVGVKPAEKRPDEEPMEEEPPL

[4] = Acute toxicity test, intravenous; type: in vivo, rats
Protocol: The experimental design included low, medium, and high doses of 50, 100, and 200 mg/kg administered intravenously. In the medium and high-dose groups, symptoms observed included ear reddening, reduced activity, prone posture, rapid breathing, and deep gasping; in the high-dose group, additional signs included deep gasping, arched back, and weight loss.

HDAC11 = HDAC11 (Homo sapiens, UniProt Q96DB2); test: HDAC enzyme activity in vitro; type: biochemical
Chain of HDAC11 (Q96DB2 whole entry): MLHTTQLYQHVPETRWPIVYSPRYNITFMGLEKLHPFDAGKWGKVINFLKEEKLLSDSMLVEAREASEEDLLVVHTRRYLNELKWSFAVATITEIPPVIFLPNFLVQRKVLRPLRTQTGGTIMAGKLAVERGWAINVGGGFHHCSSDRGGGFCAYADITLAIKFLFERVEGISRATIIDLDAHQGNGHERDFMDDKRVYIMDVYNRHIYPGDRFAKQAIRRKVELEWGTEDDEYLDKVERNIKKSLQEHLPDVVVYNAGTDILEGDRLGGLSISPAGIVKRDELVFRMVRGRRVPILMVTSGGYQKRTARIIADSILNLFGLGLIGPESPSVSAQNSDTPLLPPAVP

CYP3A4 = test: CYP induction, cryopreserved human liver cells; type: in vitro ADME; conditions: 0.0500, 0.500, 5.00 µM; three donors
mouse B-cell lymphoma = test: Ighmyc transgenic B-cell lymphoma model, survival; type: in vivo, mice
HDAC5 = HDAC5 (Homo sapiens, UniProt Q9UQL6); test: HDAC enzyme activity in vitro; type: biochemical
Chain of HDAC5 (Q9UQL6 whole entry): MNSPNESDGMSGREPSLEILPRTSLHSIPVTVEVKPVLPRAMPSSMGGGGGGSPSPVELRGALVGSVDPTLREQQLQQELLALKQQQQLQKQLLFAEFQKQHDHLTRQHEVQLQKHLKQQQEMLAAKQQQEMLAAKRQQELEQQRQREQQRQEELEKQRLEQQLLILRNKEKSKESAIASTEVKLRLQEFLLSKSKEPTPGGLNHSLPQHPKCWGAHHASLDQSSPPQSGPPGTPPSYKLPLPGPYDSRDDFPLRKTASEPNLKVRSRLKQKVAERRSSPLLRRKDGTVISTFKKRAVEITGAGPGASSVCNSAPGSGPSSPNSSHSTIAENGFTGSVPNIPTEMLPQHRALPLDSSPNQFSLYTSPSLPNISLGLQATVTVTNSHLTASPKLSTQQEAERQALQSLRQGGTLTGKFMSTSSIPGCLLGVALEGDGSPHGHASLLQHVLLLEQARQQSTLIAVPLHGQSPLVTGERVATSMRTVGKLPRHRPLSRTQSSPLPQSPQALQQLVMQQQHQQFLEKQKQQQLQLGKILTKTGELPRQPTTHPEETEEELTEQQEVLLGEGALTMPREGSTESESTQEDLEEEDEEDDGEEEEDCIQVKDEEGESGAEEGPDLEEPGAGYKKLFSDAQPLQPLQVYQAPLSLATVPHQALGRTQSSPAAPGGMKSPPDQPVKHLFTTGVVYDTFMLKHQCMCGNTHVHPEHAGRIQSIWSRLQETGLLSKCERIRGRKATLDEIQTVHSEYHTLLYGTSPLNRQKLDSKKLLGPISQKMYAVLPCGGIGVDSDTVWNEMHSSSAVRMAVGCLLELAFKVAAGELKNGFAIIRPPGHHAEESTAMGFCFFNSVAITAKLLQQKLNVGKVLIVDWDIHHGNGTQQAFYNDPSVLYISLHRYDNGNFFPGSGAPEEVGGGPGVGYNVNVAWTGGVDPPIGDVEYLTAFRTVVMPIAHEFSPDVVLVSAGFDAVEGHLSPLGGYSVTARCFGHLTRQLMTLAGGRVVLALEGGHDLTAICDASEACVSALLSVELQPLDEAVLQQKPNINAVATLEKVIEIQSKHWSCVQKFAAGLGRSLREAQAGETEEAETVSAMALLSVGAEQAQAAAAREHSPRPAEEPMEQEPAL

SMILES: CN(Cc1nc2c(N3CCOCC3)nc(-c3ccc(N)cc3)nc2n1C)c1ncc(C(=O)NO)cn1.CS(=O)(=O)O [PM, 2-(((2-(4-Aminophenyl)-9-methyl-6-(4-morpholinyl)-9H-purine-8-yl)methyl)methylamino)-N-hydroxy-5-pyrimidine-carboxamide Mesylate]
- T/C ([1]; 1.25 mg/kg): 13.9%
- tumor inhibition rate ([1]; 1.25 mg/kg): 81.61%
- T/C ([1]; 2.5 mg/kg): 6.6%
- tumor inhibition rate ([1]; 2.5 mg/kg): 92.33%
- T/C ([1]; 5 mg/kg): 2.7%
- tumor inhibition rate ([1]; 5 mg/kg): 97.77%
- T/C ([1]; 10 mg/kg): 2.2%
- tumor inhibition rate ([1]; 10 mg/kg): 97.77%
- median survival time ([1]; satellite groups, PM 5 mg/kg alone or combined, control regimens): 67.5 days
- IC50 (CYP2B6): > 10 µM
- induction of CYP1A2 (CYP1A2): did not act as an inducer
- relative tumor growth rate T/C (MM1S xenograft; 2.5 mg/kg): 49.9%
- tumor inhibition rate (MM1S xenograft; 2.5 mg/kg i.v. three times a week): 55.67%
- relative tumor growth rate T/C (MM1S xenograft; 5 mg/kg): 32.0%
- tumor inhibition rate (MM1S xenograft; 5 mg/kg i.v. three times a week): 64.39%
- relative tumor growth rate T/C (MM1S xenograft; 10 mg/kg): 21.8%
- tumor inhibition rate (MM1S xenograft; 10 mg/kg i.v. three times a week): 71.76%
- relative tumor growth rate T/C (MM1S xenograft; 20 mg/kg): 18.3%
- tumor inhibition rate (MM1S xenograft; 20 mg/kg i.v. three times a week): 76.44%
- median survival time (MM1S xenograft; 5 mg/kg): 29.0 days
- median survival time (MM1S xenograft; 10 mg/kg): 34.5 days
- IC50 [2]: < 5 nM
- IC50 (CYP2C19): > 10 µM
- IC50 (HDAC7): 590 nM
- serum calcium level (5TGM1-luc myeloma; two weeks, vehicle 20.93): 8.972
- survival (5TGM1-luc myeloma; vehicle 50 days): 86 days
- T/C ([3]; 2.5 mg/kg): 47.88±9.41%
- tumor inhibition rate ([3]; 2.5 mg/kg i.v. three times a week, mean of two batches): 58.99±2.32%
- T/C ([3]; 5 mg/kg): 34.37±3.79%
- tumor inhibition rate ([3]; 5 mg/kg): 69.35±3.47%
- T/C ([3]; 10 mg/kg): 29.62±1.77%
- tumor inhibition rate ([3]; 10 mg/kg): 75.81±8.28%
- T/C ([3]; 20 mg/kg): 21.28±6.72%
- tumor inhibition rate ([3]; 20 mg/kg): 81.40±5.38%
- median survival time ([3]; 10 mg/kg, death = tumor 3000 mm³): 30 days
- median survival time ([3]; 20 mg/kg): 30 days
- IC50 (HDAC4): 1070 nM
- MTD ([4]; both sexes, rat, in vivo, iv, single i.v., read-out: maximum tolerated dose (MTD)): 100 mg/kg
- mortality ([4]; high dose 200 mg/kg, days 1 to 6): Six out of ten
- IC50 (HDAC11): 3.35 µM
- induction of CYP3A4 (CYP3A4): did not act as an inducer
- median survival time (mouse B-cell lymphoma; 2.5 mg/kg, solvent control 10.5 days): 19.5 days
- median survival time (mouse B-cell lymphoma; 5 mg/kg): 23 days
- median survival time (mouse B-cell lymphoma; 10 mg/kg): 22.5 days
- IC50 (HDAC5): 426 nM
